Results reported in EP0657459A1, “Thienothiazine derivates, process for their preparation and their use as anti-inflammatory and analgesic agents” (Chemisch Pharmazeutische Forschungsgesellschaft m.b.H., priority 1993, dated 1995).
Like-named read-outs stand apart in the source and are kept apart here.

Experiments:
[1] = target: T1, 5-Lipoxygenase (Rattus norvegicus, UniProt P12527); experiment: Formation of leukotriene B4 by neutrophils as measure of 5-lipoxygenase activity (A23187 stimulation, RIA); format: cell-based, Sprague Dawley Ratten
T1 sequence (P12527 1-673): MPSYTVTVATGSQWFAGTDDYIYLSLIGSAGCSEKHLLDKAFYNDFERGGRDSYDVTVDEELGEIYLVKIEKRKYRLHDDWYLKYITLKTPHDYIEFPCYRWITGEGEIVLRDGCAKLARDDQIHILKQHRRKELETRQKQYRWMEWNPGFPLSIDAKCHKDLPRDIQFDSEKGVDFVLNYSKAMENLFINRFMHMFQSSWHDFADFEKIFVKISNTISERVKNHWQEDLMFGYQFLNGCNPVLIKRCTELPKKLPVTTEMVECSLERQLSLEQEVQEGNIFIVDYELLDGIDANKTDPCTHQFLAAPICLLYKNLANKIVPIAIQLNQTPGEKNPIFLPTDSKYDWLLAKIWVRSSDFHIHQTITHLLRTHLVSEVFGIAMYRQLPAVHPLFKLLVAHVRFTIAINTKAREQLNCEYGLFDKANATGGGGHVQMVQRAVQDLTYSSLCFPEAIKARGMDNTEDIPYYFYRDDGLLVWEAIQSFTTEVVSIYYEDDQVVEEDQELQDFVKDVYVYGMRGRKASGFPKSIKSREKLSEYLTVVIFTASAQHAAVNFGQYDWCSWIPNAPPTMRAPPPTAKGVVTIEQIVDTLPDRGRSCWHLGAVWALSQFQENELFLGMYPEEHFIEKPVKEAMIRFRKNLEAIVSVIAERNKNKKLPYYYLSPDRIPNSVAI
Method: (§1) Die Bildung von Prostaglandin D2 durch Neutrophile wurde als Maß für die Cyclooxygenase-Aktivität verwendet und die Bildung von Leukotrien B4 als Maß für die 5-Lipoxygenase-Aktivität. Männlichen Sprague Dawley Ratten (250-300 g) wurde lamda - Carrageenan 1 mg intraperitoneal (gelöst in 0.5 ml dest. Wasser) injiziert. Nach 16 Stunden wurden die Ratten durch Exposition in Diethylether getötet. 15 ml eiskalte Hanks balanced salt solution (HBSS) wurden i.p. injiziert, die Neutrophilen durch Absaugen geerntet (10 ml), zentrifugiert (5 min, 100g, 4°C), die überstehende Lösung dekantiert und die Zellen in HBSS resuspendiert bei 4 °C bis zu einer Konzentration von 5x10⁶ Zellen/ml. 400 µl Zellsuspension (2x10⁶ Zellen), 0,5µl Verbindung gelöst in DMSO und 49,5 µl HBSS wurden 5 min bei 37°C inkubiert. Dann wurden 50 µl A23187 (2µmol/l Endkonzentration) zugefügt und anschließend wiederum 5 min bei 37°C inkubiert. Die Reaktion wurde durch Zentrifugieren 10000g, 3s gestoppt und die überstehende Flüssigkeit in vorgekühlte Plastikröhrchen übergeführt und vor dem Beginn der Radioimmunoassay-Messung im Eisbad max. 1 h belassen. PGD2 und LTB4 wurde nach Verdünnung mit HBSS mit Hilfe kommerzieller RIA-Kits gemessen. Als Vergleichssubstanz diente 6-Chlor-4-hydroxy-2-methyl-N-(2-pyridyl)-2H-thieno(2,3-e)1,2-thiazin-3carboxamid-1,1-dioxid ("Lornoxicam", Vbg.A)

[2] = system: Cyclooxygenase; experiment: Formation of prostaglandin D2 by neutrophils as measure of cyclooxygenase activity (A23187 stimulation, RIA); format: cell-based, Sprague Dawley Ratten
Method: as §1

[3] = rat peritoneal neutrophils (carrageenan-elicited), 2x10⁶ cells, A23187 2 µmol/l, 5 min 37°C, LTB4 by RIA, read-out: IC50 (µmol/l) LTB4
[4] = read-out: IC50 (µmol/l) PGD2, rat peritoneal neutrophils (carrageenan-elicited), 2x10⁶ cells, A23187 2 µmol/l, 5 min 37°C

For CN1C(C(=O)Nc2cccc(-c3cc4ccccc4o3)n2)=C(O)c2sc(Cl)c(Cl)c2S1(=O)=O [Vbg 5, N-[6-(2-Benzo[b]furyl)-2-pyridinyl]-6,7-dichlor-4-hydroxy-2-methyl-2H-thieno-[2,3-e][1,2]thiazin-3-carboxamid-1,1-dioxid], the IC50 [1, 3] was 1.3 µmol/L and the IC50 [2, 4] was 0.036 µmol/L.
CN1C(C(=O)Nc2cccc(-c3cc4ccccc4s3)n2)=C(O)c2sc(Cl)cc2S1(=O)=O [Vbg 1, N-[6-(2-Benzo[b]thienyl)-2-pyridinyl]-6-chlor-4-hydrory-2-methyl-2H-thieno[2,3-e][1,2]thiazin-3-carboxamid-1,1-dioxid] gave an IC50 [1, 3] of 2 µmol/L and an IC50 [2, 4] of 0.049 µmol/L.
Compound CN1C(C(=O)Nc2cccc(-c3ccc(Oc4ccc(F)cc4)o3)n2)=C(O)c2sc(Cl)cc2S1(=O)=O [Vbg 4, 6-Chlor-N-{6-[5-(4-fluorphenoxy)-2-furyl]-2-pyridinyl}-4-hydroxy-2-methyl-2H-thieno[2,3-e]-1,2-thiazin-3-carboxamid-1,1-dioxid] has an IC50 [1, 3] of 1.3 µmol/L and an IC50 [2, 4] of 1.7 µmol/L.
CN1C(C(=O)Nc2ccccn2)=C(O)c2sc(Cl)cc2S1(=O)=O [A] gave an IC50 [1, 3] greater than 10 µmol/L and an IC50 ([2]; rat peritoneal neutrophils (carrageenan-elicited), 2x10⁶ cells, A23187 2 µmol/l, 5 min 37°C, PGD2 by RIA, read-out: IC50 (µmol/l) PGD2) of 0.02 µmol/L.
CN1C(C(=O)Nc2cccc(-c3cccc(Oc4ccc(F)cc4)c3)n2)=C(O)c2sc(Cl)cc2S1(=O)=O [Vbg 3, 6-Chlor-N-{6-[3-(4-fluorphenoxy)phenyl]-2-pyridinyl}-4-hydroxy-2-methyl-2H-thieno[2,3-e]-1,2-thiazin-3-carboxamid-1,1-dioxid] was tested, and the IC50 [1, 3] was 1.7 µmol/L and the IC50 [2, 4] was 0.45 µmol/L.
In the case of CN1C(C(=O)Nc2cccc(-c3ccc(-c4ccccc4)cc3)n2)=C(O)c2sc(Cl)cc2S1(=O)=O [Vbg 2, N-[6-(4-Biphenyl)-2-pyridinyl]-6-chlor-4-hydroxy-2-methyl-2H-thieno[2,3-e][1,2]thiazin-3-carboxamid-1,1-dioxid], the IC50 [1] is reported as 1.4 µmol/L and the IC50 [2, 4] is reported as 3.5 µmol/L.
